Counter-ions that a name gives are not always drawn.
Tests used:
B1R receptor of the rat = molecular target: T1, B1R receptor of the rat (Rattus norvegicus, UniProt P97583); assay: Functional study on the bradykinin receptor 1 (B1R), FLIPR Ca2+ assay, rB1R cells; type: cell-based; conditions: agonist Des-Arg9-bradykinin 100 nM, % inhibition compared with the maximum achievable inhibition; for inhibition at 10 µM: CHO-K1, test substance 10 μM, read-out: B1R Antagonism, rat [10 μM] % Inhibition
T1 construct: host or cells: CHO K1 cells (Chinese hamster ovary), stably transfected
T1 sequence (P97583 1-337): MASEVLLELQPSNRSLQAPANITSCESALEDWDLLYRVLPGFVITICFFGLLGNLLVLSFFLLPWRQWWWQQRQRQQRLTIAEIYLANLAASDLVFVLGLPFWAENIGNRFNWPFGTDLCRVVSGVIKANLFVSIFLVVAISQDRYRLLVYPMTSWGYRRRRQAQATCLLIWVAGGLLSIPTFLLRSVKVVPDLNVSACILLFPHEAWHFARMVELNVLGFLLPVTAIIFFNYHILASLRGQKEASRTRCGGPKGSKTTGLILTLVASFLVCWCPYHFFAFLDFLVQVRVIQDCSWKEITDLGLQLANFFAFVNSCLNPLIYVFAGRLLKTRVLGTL
Summary of the method: (§1)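 FLIPR Ca2+ read-out (Fluo-4, peak fluorescence) in stably transfected CHO K1 cells. Compounds at 10 μM, then 10 min later agonist challenge: human B1R with Lys-Des-Arg9-bradykinin 0.5 nM, rat B1R with Des-Arg9-bradykinin 100 nM; reported as % activation or % of maximal inhibition.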

human B1R receptor = molecular target: T2, human B1R receptor (Homo sapiens, UniProt P46663); assay: Functional study on the bradykinin receptor 1 (B1R), FLIPR Ca2+ assay, hB1R cells; type: cell-based; conditions: agonist Lys-Des-Arg9-bradykinin 0.5 nM, % inhibition compared with the maximum achievable inhibition; for inhibition at 10 µM: CHO-K1, test substance 10 μM, read-out: B1R Antagonism, human [10 μM] % Inhibition
T2 construct: host or cells: CHO K1 cells (Chinese hamster ovary), stably transfected
T2 sequence (P46663 1-353): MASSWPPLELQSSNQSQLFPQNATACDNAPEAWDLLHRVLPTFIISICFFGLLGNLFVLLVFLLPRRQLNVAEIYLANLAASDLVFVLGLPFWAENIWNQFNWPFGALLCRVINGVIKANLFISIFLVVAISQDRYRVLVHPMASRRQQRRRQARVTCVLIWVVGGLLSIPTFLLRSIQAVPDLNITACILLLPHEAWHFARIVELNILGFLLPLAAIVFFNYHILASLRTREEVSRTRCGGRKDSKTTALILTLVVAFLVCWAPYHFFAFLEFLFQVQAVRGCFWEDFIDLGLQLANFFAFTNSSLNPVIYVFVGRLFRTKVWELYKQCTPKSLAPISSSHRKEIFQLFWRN
Summary of the method: as §1

Structure (SMILES)	inhibition at 10 µM (B1R receptor of the rat) [%]	inhibition at 10 µM (human B1R receptor) [%]	B1R Antagonism, rat [10 μM] % Inhibition (B1R receptor of the rat; test substance 10 μM, rB1R CHO K1 cells) [%]	B1R Antagonism, human [10 μM] % Inhibition (human B1R receptor; test substance 10 μM, hB1R CHO K1 cells) [%]
COc1cc(C)c(S(=O)(=O)N2CCCC2COCC(=O)N(C)C(CN2CCCC2)c2ccccc2)c(C)c1 (stereo not drawn) [Example 450, 2-((1-(4-methoxy-2,6-dimethylphenylsulfonyl)pyrrolidin-2-yl)methoxy)-N-methyl-N-(1-phenyl-2-(pyrrolidin-1-yl)ethyl)acetamide]	99.7	87.4	–	–
Cc1cc(C)c(S(=O)(=O)N2CCCCC2COCC(=O)NCc2ccccc2N2CCN(C)CC2)c(C)c1 (stereo not drawn) [Example 80, N-[2-(4-methyl-piperazin-1-yl)-benzyl]-2-[1-(2,4,6-trimethyl-phenylsulfonyl)-piperidin-2-ylmethoxy]-acetamide]	22.5	45.3	–	–
O=C(COCC1CCCCN1S(=O)(=O)c1ccc(Br)cc1)N1CCN(c2ccncc2)CC1 (stereo not drawn) [Example 126, 2-((1-(4-bromophenylsulfonyl)piperidin-2-yl)methoxy)-1-(4-(pyridin-4-yl)piperazin-1-yl)ethanone]	81.1	46.4	–	–
O=C(COCC1CCCCN1S(=O)(=O)c1ccc(Cl)c(Cl)c1)NCC1CCCN(Cc2ccccc2)C1 (stereo not drawn) [Example 70, N-(1-benzyl-piperidin-3-ylmethyl)-2-[1-(3,4-dichloro-phenylsulfonyl)-piperidin-2-yl-methoxy]-acetamide]	42.2	53.3	–	–
COc1ccc(S(=O)(=O)N2c3ccccc3CC2COCC(=O)N2CCC(CCN3CCCCC3)CC2)cc1 (stereo not drawn) [Example 547, 2-((1-(4-methoxyphenylsulfonyl)indolin-2-yl)methoxy)-1-(4-(2-(piperidin-1-yl)ethyl)piperidin-1-yl)ethanone]	100	77.4	–	–
COc1cc(C)c(S(=O)(=O)N2CCCCC2COCC(=O)N2CCC(CCN3CCCC3)CC2)c(C)c1 (stereo not drawn) [Example 94, 2-((1-(4-methoxy-2,6-dimethylphenylsulfonyl)piperidin-2-yl)methoxy)-1-(4-(2-(pyrrolidin-1-yl)ethyl)piperidin-1-yl)ethanone hydrochloride]	103	105	–	–
CN1CCC(N2CCN(C(=O)COCC3CCCCN3S(=O)(=O)c3cc(Cl)c(Cl)cc3Cl)CC2)CC1 (stereo not drawn) [Example 156, 1-(4-(1-methylpiperidin-4-yl)piperazin-1-yl)-2-((1-(2,4,5-trichlorophenylsulfonyl)piperidin-2-yl)methoxy)ethanone dihydrochloride]	103	108	–	–
O=C(COCC1CCCN1S(=O)(=O)c1ccc(Cl)c(Cl)c1)N1CCN(CCN2CCCCC2)CC1 (stereo not drawn) [Example 72, 2-((1-(3,4-dichlorophenylsulfonyl)pyrrolidin-2-yl)methoxy)-1-(4-(2-(piperidin-1-yl)-ethyl)piperazin-1-yl)ethanone]	13.2	52.6	–	–
Cc1ccc(S(=O)(=O)N2CCCCC2COCC(=O)N2CCN(C3CCN(C)CC3)CC2)c2ccccc12 (stereo not drawn) [Example 155, 2-((1-(4-methylnaphthalen-1-ylsulfonyl)piperidin-2-yl)methoxy)-1-(4-(1-methylpiperidin-4-yl)piperazin-1-yl)ethanone dihydrochloride]	89.6	107	–	–
Cc1ccc(C)n1CCN1CCN(C(=O)COCC2CCCCN2S(=O)(=O)c2c(Cl)cccc2Cl)CC1 (stereo not drawn) [Example 280, 2-((1-(2,6-dichlorophenylsulfonyl)piperidin-2-yl)methoxy)-1-(4-(2-(2,5-dimethyl-1H-pyrrol-1-yl)ethyl)piperazin-1-yl)ethanone]	92	104	–	–
Cc1nn(C)c(Cl)c1S(=O)(=O)N1CCCCC1COCC(=O)N1CCN(C2CCN(C)CC2)CC1 (stereo not drawn) [Example 128, 2-((1-(5-chloro-1,3-dimethyl-1H-pyrazol-4-ylsulfonyl)piperidin-2-yl)methoxy)-1-(4-(1-methylpiperidin-4-yl)piperazin-1-yl)ethanone]	94.5	90.8	–	–
CN(C)CCCN1CCN(C(=O)COCC2CCCCN2S(=O)(=O)c2cccc(C(F)(F)F)c2)CC1 (stereo not drawn) [Example 58, 1-[4-(3-dimethylamino-propyl)-piperazin-1-yl]-2-[1-(3-trifluoromethyl-phenylsulfonyl)-piperidin-2-ylmethoxy]-ethanone]	10.2	62.2	–	–
O=C(COCC1CCCCN1S(=O)(=O)c1c(Cl)cccc1Cl)N1CCN(c2cccc(C(F)(F)F)c2)CC1 (stereo not drawn) [Example 481, 2-((1-(2,6-dichlorophenylsulfonyl)piperidin-2-yl)methoxy)-1-(4-(3-(trifluoromethyl)phenyl)piperazin-1-yl)ethanone]	104	72.6	–	–
COc1cc(C)c(S(=O)(=O)N2CCCCC2COCC(=O)NC(C)Cn2cccn2)c(C)c1 (stereo not drawn) [Example 426, N-(1-(1H-pyrazol-1-yl)propan-2-yl)-2-((1-(4-methoxy-2,6-dimethylphenylsulfonyl)piperidin-2-yl)methoxy)acetamide]	94.4	-4.95	–	–
COc1cc(C)c(S(=O)(=O)N2CCCCC2COCC(=O)NCCc2cnccn2)c(C)c1 (stereo not drawn) [Example 425, 2-((1-(4-methoxy-2,6-dimethylphenylsulfonyl)piperidin-2-yl)methoxy)-N-(2-(pyrazin-2-yl)ethyl)acetamide]	98.8	-0.97	–	–
COc1cc(C)c(S(=O)(=O)N2CCCCC2COCC(=O)N(CCCN(C)C)CCCN(C)C)c(C)c1 (stereo not drawn) [Example 561, N,N-bis(3-(dimethylamino)propyl)-2-((1-(4-methoxy-2,6-dimethylphenylsulfonyl)piperidin-2-yl)methoxy)acetamide]	101	102	–	–
CN(C(=O)COCC1CCCCN1S(=O)(=O)c1c(Cl)cc(Cl)cc1Cl)C(CN1CCCC1)c1ccccc1 (stereo not drawn) [Example 392, N-methyl-N-(1-phenyl-2-(pyrrolidin-1-yl)ethyl)-2-((1-(2,4,6-trichlorophenylsulfonyl)piperidin-2-yl)methoxy)acetamide]	99.1	101	–	–
Cc1ccc(N2CCN(C(=O)COCC3CCCN3S(=O)(=O)c3c(Cl)cccc3Cl)CC2)cc1C (stereo not drawn) [Example 355, 2-((1-(2,6-dichlorophenylsulfonyl)pyrrolidin-2-yl)methoxy)-1-(4-(3,4-dimethylphenyl)piperazin-1-yl)ethanone]	102	83.4	–	–
Cc1cc(F)cc(C)c1S(=O)(=O)N1CCCCC1COCC(=O)N1CCN(C2CCN(C)CC2)CC1 (stereo not drawn) [Example 169, 2-((1-(4-fluoro-2,6-dimethylphenylsulfonyl)piperidin-2-yl)methoxy)-1-(4-(1-methylpiperidin-4-yl)piperazin-1-yl)ethanone dihydrochloride]	101	100	–	–
COc1cc(C)c(S(=O)(=O)N2CCCCC2COCC(=O)Nc2cc(-c3ccccc3)[nH]n2)c(C)c1 (stereo not drawn) [Example 536, 2-((1-(4-methoxy-2,6-dimethylphenylsulfonyl)piperidin-2-yl)methoxy)-N-(5-phenyl-1H-pyrazol-3-yl)acetamide]	107	63.1	–	–
O=C(COCC1CCCCN1S(=O)(=O)c1c(Cl)cc(Cl)cc1Cl)N1CCC(c2cccnc2)C1 (stereo not drawn) [Example 389]	–	–	100.49	100.51

Source: patent US8435978B2, “Substituted sulfonamide compounds” (Gruenenthal GmbH, priority 2006, dated 2013)
